{"source": "patent US20030231978A1", "about": "“Indoor air quality and antiseptic composition for use therein” (priority 2002, published 2003)", "key": {"[1]": {"assay": "Solution and suspension levels of terpenes in water", "text": "The terpene and water were blended in a household blender for 30 seconds.\nExamples of these levels are as follows."}, "[2]": {"assay": "Potency decay / breakdown of terpenes in presence of oxygen", "type": "physicochemical", "details": "500 ppm solution", "text": "Terpenes will break down in the presence of oxygen. Citral, for example, is an aldehyde and will decay (oxygenate) over a period of days."}, "E. coli": {"system": "E. coli", "details": "cited from earlier work"}, "H. pylori": {"system": "H. pylori", "details": "cited from earlier work"}, "Mycoplasma pneumoniae": {"system": "Mycoplasma pneumoniae", "assay": "Effectiveness against Mycoplasma pneumoniae (color change of SP4 medium)", "type": "cell-based", "details": "40 hours treatment", "protocol": "Terpene beta-ionone or L-carvone was first mixed well with Tween® 80 to have a final Tween® 80 concentration of 5 vol %. This mixture was then used to make concentrations of 2500 ppm in sterile phosphate buffer saline (PBS) by blending the mixture in PBS for 40 seconds. This 2500 ppm solution was then diluted to 500 ppm, 250 ppm, and 125 ppm with PBS.\nPBS containing 25 ppm Tween® 80 or PBS alone was used to treat cells suspension as controls.\nA log phase (2-3 -day old) culture of Mycoplasma pneumoniae was mixed with each of the above three concentrations of terpene at 1:1 (volume) ratio (in this case, I mL of cell suspension was added to 1 mL of terpene).\nThe culture and terpene mixture was then incubated at 37° C. for 40 hours. After 40 hours of treatment, 10-fold serial dilution was performed to 10 (−10) by first taking 0.1 mL of the treated culture suspension was added into 0.9 mL of fresh SP4 (Whitcomb (1983); SP4 media is commercially available (Remel, Lenexa, Kans., USA)). All the tubes were then incubated at 37° C., and a color change of the medium was used for the indication of the cells that either were killed or survived from the treatment. Color change was from red to yellow because Mycoplasma pneumoniae produces acid during its growth.\nAll the treatments were performed in duplicate."}, "[3]": {"system": "Third stage (L3) Dirofilaria immitis larvae", "assay": "In-vitro larvacidal effect", "type": "cell-based", "protocol": "Third stage (L3) Dirofilaria immitis larvae were suspended at a concentration of 85 larvae/ml. Larvae were deposited on plates with wells containing b-ionone at a concentration of 5 μM, 50 μM, and 750 μM, Tween® 80, and control media.\nPlates were incubated at 37° C., 95% relative humidity (RH), and 5% CO2 for 6 days.\nAfter incubation all wells were evaluated for appearance, motility, and molting to stage four (L4) at 24, 48, 72 hours, and 6 days."}, "[4]": {"details": "in water without surfactant, high-shear blending"}}, "note": "“Also recorded” adds a separate entry of the source. Where two headings read alike, the source gives them in different places."}
{"molecule": "C=C(C)C1CC=C(C)C(=O)C1", "note": "(stereo not shown) [Carvone]", "values": [{"measurement": "Solution levels for various terpenes (maximum level solubilized)", "setting": "[1]; [4]", "value": 500, "unit": "ppm"}]}
{"molecule": "CC(C)=CCCC(C)=CC=O", "note": "[Citral, 3,7-dimethyl-2,6-octadien-1-al]", "values": [{"measurement": "Time to lose half its potency", "setting": "[2]", "value": "2-3 weeks"}, {"measurement": "Level up to which a stable suspension of citral can be formed", "setting": "[1]", "value": "up to 2500 ppm"}, {"measurement": "Level up to which citral forms a solution in water", "setting": "[1]; true solution, high shear mixing, no surfactant", "value": "up to 1000 ppm"}, {"measurement": "Concentration that will lyse human erythrocytes", "setting": "human erythrocytes", "value": "about 1000 ppm"}, {"measurement": "Citral in growth media that reduced the concentration of E. coli", "setting": "E. coli", "value": "more than 0.01%"}, {"measurement": "Citral in growth media with bactericidal effect", "setting": "E. coli", "value": 0.08, "unit": "%"}]}
{"molecule": "CC(C)=CCC/C(C)=C/CO", "note": "[Geraniol]", "values": [{"measurement": "Solution levels for various terpenes (maximum level solubilized)", "setting": "[1]", "value": 500, "unit": "ppm"}, {"measurement": "Concentration that inhibited the growth of H. pylori in vitro", "setting": "H. pylori", "value": 2, "unit": "mg/L"}]}
{"molecule": "CC(=O)/C=C/C1=C(C)CCCC1(C)C", "note": "[b-ionone]", "values": [{"measurement": "Color change of the first tube three days after the 10-fold dilution (killing effect)", "setting": "Mycoplasma pneumoniae; 62.5 ppm, 125 ppm and 250 ppm", "value": "did not change color at all indicating a killing effect"}, {"measurement": "Color change of tubes 6 days after the 10-fold dilution", "setting": "Mycoplasma pneumoniae; 62.5 ppm", "value": "only the first tube of 62.5 ppm beta-ionone changed color"}, {"measurement": "Killing of cells, 6 days after the 10-fold dilution", "setting": "Mycoplasma pneumoniae; 125 and 250 ppm", "value": "may have completely killed all cells in 40 hours"}, {"measurement": "Solution levels for various terpenes (maximum level solubilized)", "setting": "[1]; [4]", "value": 500, "unit": "ppm"}, {"measurement": "Survival, motility and molting of larvae", "setting": "[3]; 5 μM", "value": "no effect on the larvae"}, {"measurement": "Survival, motility and molting of larvae", "setting": "[3]; 50 μM, 6 day assay", "value": "decreased survivability, motility, and molting; also recorded: Most larvae were dead by 6 days and none molted"}, {"measurement": "Survival, motility and molting of larvae", "setting": "[3]; 750 μM", "value": "all larvae were dead or moribund within 24 hours"}]}
{"molecule": "L-carvone", "values": [{"measurement": "Color change of the first tube three days after the 10-fold dilution (killing effect)", "setting": "Mycoplasma pneumoniae; 62.5 ppm, 125 ppm and 250 ppm", "value": "no killing effects"}, {"measurement": "Color change of the second and third tube 6 days after the 10-fold dilution", "setting": "Mycoplasma pneumoniae; 62.5 ppm, 125 ppm and 250 ppm", "value": "changed color"}]}
{"molecule": "Terpeniol", "values": [{"measurement": "Solution levels for various terpenes (maximum level solubilized)", "setting": "[1]; [4]", "value": 500, "unit": "ppm"}]}
